Molecular target: T1, SmPAL (Streptomyces maritimus, UniProt Q9KHJ9)
T1 construct: gene encP; native gene amplified from pHB-104, expressed from pHCMS-SmPAL (PH36 promoter) in Corynebacterium glutamicum ATCC 13032; 56 kDa; no tag mentioned; whole cells, not purified
T1 sequence (Q9KHJ9 1-523): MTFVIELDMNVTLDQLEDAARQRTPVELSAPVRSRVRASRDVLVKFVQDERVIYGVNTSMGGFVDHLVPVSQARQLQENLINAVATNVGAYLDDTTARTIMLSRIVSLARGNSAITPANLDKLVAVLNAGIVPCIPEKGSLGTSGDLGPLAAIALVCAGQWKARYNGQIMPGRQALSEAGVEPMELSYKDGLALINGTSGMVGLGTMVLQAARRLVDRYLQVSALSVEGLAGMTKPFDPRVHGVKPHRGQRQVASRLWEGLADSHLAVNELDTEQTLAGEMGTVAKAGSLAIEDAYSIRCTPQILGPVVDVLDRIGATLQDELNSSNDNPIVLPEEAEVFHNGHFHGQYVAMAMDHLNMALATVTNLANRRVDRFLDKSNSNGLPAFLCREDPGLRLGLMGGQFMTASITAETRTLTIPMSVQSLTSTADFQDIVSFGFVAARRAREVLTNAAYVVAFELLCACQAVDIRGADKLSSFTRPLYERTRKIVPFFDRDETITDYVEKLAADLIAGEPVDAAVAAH
Test: whole-cell bioconversion, HPLC of L-Phe and t-CA
Assay type: cell-based
Conditions: C. glutamicum harboring pHCMS-SmPAL; 18.2 mM L-Phe; 100 mM Tris-HCl pH 7.5; 30 °C; product trans-cinnamic acid

Q: Which “whole-cell bioconversion, HPLC of L-Phe and t-CA” value does the source give for `N[C@@H](Cc1ccccc1)C(=O)O` [L-phenylalanine] here?
A: Its value is “the bioconversion of L-Phe to t-CA was immediately observed”.

From PMC8310591, “Production of trans-cinnamic acid by whole-cell bioconversion from L-phenylalanine in engineered Corynebacterium glutamicum” (Microbial Cell Factories, 2021)
